Measurements reported in article PMC7865305, “Pseudopeptide Amyloid Aggregation Inhibitors: In Silico, Single Molecule and Cell Viability Studies” (International Journal of Molecular Sciences, 2021).
pIC50: −log10 of the molar value. Square brackets hold non-standard residues; d marks the D form. Peptide text beside a SMILES is read from it. * marks the point of attachment. NMeF = CN[C@@H](Cc1ccccc1)C(=O)O; Myristoyl = CCCCCCCCCCCCCC(=O)*; NMeL = CN[C@@H](CC(C)C)C(=O)O; Orn = NCCC[C@H](N)C(=O)O; Dab = NCC[C@H](N)C(=O)O; βAla = NCCC(=O)O

Assays:
[1] = tested on: HT22 cells; test: SG inhibitor toxicity, MTT assay; format: cell-based, mouse; conditions: 24 h; for HT22 cell viability, inhibitor alone: HT22 cells, 2.5, 5.0 and 10.0 µM, MTT, n = 4, vs control, one-way ANOVA with Dunnett
Procedure: (§1) The MTT assay was used to evaluate the viability of HT22 cells exposed to inhibitor or mixtures of inhibitor with full length Aβ(1–42). HT22 cells were plated into 96-well cell culture plates at a cell density of 100,000 cells/mL in full growth media (DMEM/F12, with 10% FBS, 1% Pen/Strep) at 37°C, 5% CO2, until 80% confluence (20–22 h). Full growth media was exchanged for treatment media (containing Aβ or Aβ with SG inhibitor). After treatment, cells are then returned to incubator for 24 h. The media was then exchanged for phenol red-free DMEM/F12 containing 0.5 mg/mL MTT. Cells were returned to the incubator to metabolize the MTT for 3.5 h, after which, cells were solubilized in isopropanol, with 10% Triton X-100 and 0.1 M HCl. After solubilization, absorbance from the 96-well plates was read in Molecular Dynamics™ plate reader at 570 nm and 690 nm. The signal at 690 nm and media control was subtracted from the 570 nm reading prior to analysis. HT22 cells were a generous gift from Dr. Robert Cumming, PhD, University of Western Ontario.
Inhibitor toxicity to HT22 cells was assessed by treating cells with inhibitor (SGA1, Myr-SGA1, SGA3, Myr-SGA3 or SGC1) at concentrations of 2.5, 5.0 and 10.0 µM for 24 h in triplicates, for n = 4 repeats. One-way ANOVA with Dunnett’s multiple comparisons test was performed to establish significance between inhibitor groups and vehicle-treated control, threshold for significance: α = 0.05. To assess SG inhibitor neuroprotection against Aβ(1–42) oligomers, Aβ(1–42) alone or Aβ(1–42) mixed with each inhibitor at the ratios described above were applied to cells in quadruplicates for n = 3 repeats. One-way ANOVA with Dunnett’s multiple comparisons was performed to establish significance between Aβ-SG inhibitor mixture and Aβ-treated control; threshold for significance: α = 0.05.

[2] = tested on: Aβ(1–42)-Aβ(1–42) dimerization; set-up: method as in 2 sources, ref [21] = [21]; PMID 24321883; doi:10.1016/j.bios.2013.10.060; 21. Hane F.T. Lee B.Y. Petoyan A. Rauk A. Leonenko Z. Testing synthetic amyloid-β aggregation inhibitor using single molecule atomic force spectroscopy Biosens. Bioelectron. 2014 54 492 498 10.1016/j. ||| ref [30] = [30]; PMID 28844735; doi:10.1016/j.bbapap.2017.07.022; 30. Robinson M. Mehrazma B. Opare S.K.A. Petoyan A. Lou J. Hane F.T. Rauk A. Leonenko Z. Pseudo-peptide Amyloid-β Blocking Inhibitors: Molecular Dynamics and Single Molecule Force Spectroscopy Study B; conditions: cited from earlier work; for Shift of Aβ binding probability across unbinding force distribution / Binding probability of Aβ: SMFS, ref [30]; for Binding probability of Aβ: no significant difference between inhibitors
[3] = tested on: HT22 cells; format: cell-based, mouse; conditions: MTT; for HT22 cell viability with Aβ(1–42) and myristoylated inhibitor: 5 µM Aβ(1–42) with Myr-SG inhibitor, 24 h, Figure 7B, n = 3
Procedure: as §1
Aβ(1–42) oligomers were prepared following protocols adapted from Stine et al.. Briefly, Aβ(1–42) was dissolved in HFIP to 1 mg/mL solution and aliquoted into microcentrifuge tubes, and allowed to evaporate under desiccant for 24 h, leaving behind a thin film of Aβ(1–42) monomers, which was stored at […] under desiccant. Immediately prior to use, Aβ(1–42) monomers were suspended in dimethyl sulfoxide (DMSO) at a concentration of 5 mM, vortexed for 30 s, pulse centrifuged for 30 s and then sonicated for 10 min at room temperature. The 5 mM Aβ(1–42) monomer solution prepared in DMSO was then diluted to 100 µM in cold DMEM/F12 media, then further diluted to 5 µM in fresh DMEM/F12 or DMEM/F12 containing SG inhibitor at various concentrations corresponding to a final ratio of 5:1, 2:1, 1:1 and 1:2 Aβ to SG. […]
Inhibitor toxicity to HT22 cells was assessed by treating cells with inhibitor (SGA1, Myr-SGA1, SGA3, Myr-SGA3 or SGC1) at concentrations of 2.5, 5.0 and 10.0 µM for 24 h in triplicates, for n = 4 repeats. […]

[4] = tested on: Aβ(1–40); conditions: ThT fluorescence, 25 μM Aβ(1–40), 37 °C, 5 to 7 days; ref [33]; cited from earlier work
Procedure: (§2) Experimental validation of the effect of SGA1 on amyloid aggregation and structure was performed previously by several methods: including ThT fluorescence, circular dichroism (CD), Western blot and AFM imaging. The influence of SGA1 on Aβ(1–40) and Aβ(1–42) aggregation by ThT fluorescence assay was performed at a concentration of 25 μM Aβ(1–40) and Aβ(1–42) at 37 °C for 5 to 7 days, across a broad range of SG inhibitor concentration to determine the IC50 inhibitory ligand:Aβ ratio [33]. For SGA1, the IC50 ligand:Aβ(1–40) ratio occurred at 0.2, while the control, N-methylated KLVFF peptide (A ...

[5] = tested on: Aβ(1–42); conditions: ThT fluorescence, 25 μM Aβ(1–42), 37 °C, 5 to 7 days; ref [33]; cited from earlier work
Procedure: as §2, with “[33].” for “[33]. For SGA1, the IC50 ligand:Aβ(1–40) ratio occurred at 0.2, while the control, N-methylated KLVFF peptide (A ...”

[6] = tested on: Aβ(1–42); conditions: AFM, 110 μM Aβ(1–42), 1:1 ratio, 1, 6 and 24 h on mica, vs Aβ-only control; ref [21]; cited from earlier work
Procedure: In Hane et al., solutions of Aβ(1–42) (prepared by the Fezoui method) with and without SGA1 were deposited onto freshly cleaved mica at 1:1 ratio with a final concetration of 110 μM Aβ(1–42), and then incubated for 1, 6 and 24 h, before being washed, dried and than imaged by AFM (Figure 4, adapted with permission).

Row | Compound | pIC50 [1] | HT22 cell viability, inhibitor alone [1] | Shift of Aβ binding probability across unbinding force distribution [2] | Binding probability of Aβ [2] | HT22 cell viability with Aβ(1–42) and myristoylated inhibitor [3] | IC50 ligand:Aβ(1–40) ratio [4] | Number of Aβ binding events ([2]; SMFS proof-of-concept study, ref [21]) | IC50 inhibitory ligand/Aβ1–42 ratio [5] | Fibril length of Aβ(1–42) aggregates [6] | Effect on Aβ(1–42) toxicity ([3]; 5 µM Aβ(1–42), Aβ/SG 5:1, 2:1, 1:1, 1:2, 24 h, n = 3, vs Aβ-treated group)
1 | CCCCCCCCCCCCCC(=O)N[C@@H](CCN)C(=O)N[C@@H](CCCN)C(=O)N(C)[C@@H](CC(C)C)C(=O)N[C@@H](Cc1ccccc1)C(=O)N(C)[C@@H](Cc1ccccc1)C(=O)N[C@@H](CC(C)C)C(=O)N1CCC[C@H]1C(=O)NCCC(=O)O [Myr-SGA1] (Myristoyl-[Dab][Orn][NMeL]F[NMeF]LP[βAla]-OH; N-terminus and C-terminus assumed) | ~5.12 | significant reductions in HT22 cell viability at 5 and 10 µM | decreased the binding probability at higher force | reduced the binding probability of Aβ | below 30% |  |  |  |  | 
2 | CCCCCCCCCCCCCC(=O)N[C@@H](CCN)C(=O)N[C@@H](CCCN)C(=O)N(C)[C@@H](CC(C)C)C(=O)N[C@@H](Cc1ccccc1)C(=O)N(C)[C@@H](Cc1ccccc1)C(=O)N[C@@H](CC(C)C)C(=O)N[C@@H](C)C(=O)N[C@@H](CCC(=O)O)C(N)=O [Myr-SGA3] (Myristoyl-[Dab][Orn][NMeL]F[NMeF]LAE-NH2; C-terminus assumed) | ~5.12 | significant reductions in HT22 cell viability at 5 and 10 µM |  |  | below 30% |  |  |  |  | 
3 | CC(=O)N[C@@H](CCN)C(=O)N[C@@H](CCCN)C(=O)N(C)[C@@H](CC(C)C)C(=O)N[C@@H](Cc1ccccc1)C(=O)N(C)[C@@H](Cc1ccccc1)C(=O)N[C@@H](CC(C)C)C(=O)N1CCC[C@H]1C(=O)NCCC(=O)O [SGA1] (Ac-[Dab][Orn][NMeL]F[NMeF]LP[βAla]-OH; N-terminus and C-terminus assumed) |  | no significant reduction in cell viability was observed |  |  |  | 0.2 | decreases the number Aβ binding events in a concentration dependent manner | 0.5 | greatly reduced | 
4 | CC(=O)N[C@@H](CCN)C(=O)N[C@@H](CCCN)C(=O)N(C)[C@@H](CC(C)C)C(=O)N[C@@H](Cc1ccccc1)C(=O)N(C)[C@@H](Cc1ccccc1)C(=O)N[C@@H](CC(C)C)C(=O)N[C@@H](C)C(=O)N[C@@H](CCC(=O)O)C(N)=O [SGA3] (Ac-[Dab][Orn][NMeL]F[NMeF]LAE-NH2; N-terminus and C-terminus assumed) |  | no significant reduction in cell viability was observed | more uniformly reduced binding probability across the unbinding force distribution | reduced the binding probability of Aβ |  |  |  |  |  | 
5 | Glu-Ala-(Me)Phe-Phe-(Me)Phe-Leu-Orn-Daba [SGC1] |  |  | increased the binding probability at higher force | reduced the binding probability of Aβ |  |  |  |  |  | no statistically significant effect
